Measured values reported in patent US6331642A, “Vitamin D3 analogs” (Hoffmann-La Roche Inc., priority 2000, dated 2001).

What was measured:
MCF-7 cells = assay: Cell cycle analysis by flow cytometry; format: cell-based; conditions: 10^-7 M, 4 days
Procedure: Cell Cycle Analysis by Flow Cytometry. Cell cycle analysis was performed on MCF-7 cells incubated for 4 days with either 1,25(OH)2 D3 or 1,25(OH)2 -16-ene-5,6-trans-D3 at 10^-7 M. The cells were fixed in chilled methanol overnight before staining with 50 μg/ml propidium iodide, 1 mg/ml Rnase (100 units/ml) and 0.1% NP40. Analysis was performed immediately after staining. All experiments were done at least three times independently. All data were statistically analyzed by Student's test.
Cell cycle Analysis. Effect of 1,25(OH)2 -16-ene-5,6-trans-D3 and 1,25(OH)2 D3 (10^-7, 4 days) on the cell cycle of the MCF-7 cells was determined.

[1] = Serum calcium levels in vivo, mice; design: species or system male Balb/c mice; conditions: for survival: 3 weeks of study
Procedure: Serum Calcium Levels in vivo. Twenty-eight male Balb/c mice at 8 to 9 weeks of age were maintained in pathogen-free conditions and fed a standard laboratory diet. Four mice per group were injected intraperitoneally every other day (except Saturday and Sunday) with either vitamin D3 compound or diluant (100 μl/mouse) for 3 weeks. Doses of 1,25(OH)2-16-ene-5,6-trans-D3 were: 0.1, 0.5, 1.0, and 2.0 μg. Doses of 1,25(OH)2 D3 were 0.1 μg/mouse. Control mice were injected with 100 μl of PBS. Serum calcium values were measured every week by the quantitative, colorimetric detection assay.
Serum Calcium Levels in vivo. Because hypercalcemia is a major toxicity of vitamin D3 compounds, the calcemic effects of 1,25(OH)2 D3 were compared with 1,25(OH)2 -16-ene-5,6-trans-D3.

ventral prostate = assay: Antiandrogenic activity in castrated testosterone stimulated hamsters, ventral prostate; format: in vivo, male Syrian hamsters
Procedure: 1,25(OH)2 -16-ene-5,6-trans D3 was evaluated for antiandrogenic activity in castrated, testosterone stimulated male Syrian hamsters.
[…] Both compounds were administered in a vehicle of 0.2 ml sesame oil each. Necropsy was performed on day 15. The prostate and seminal vesicles were removed, blotted and weighed. Data were analyzed for statistical significance using the Student's t-test and are expressed as percent inhibition of stimulated response.

sebaceous glands = assay: Sebaceous gland area, hamster ear (image analysis); format: in vivo, Golden Syrian hamsters; conditions: 4 weeks
Procedure: (§1) Two hundred μl of (1,25)OH2 -16-ene-5,6-trans D3 was dissolved in propylene glycol, administered daily (5 days per week) by gavage to […] Golden Syrian hamsters. The animals were sacrificed at 4 weeks and the ears were processed for histological evaluation. The area of the sebaceous glands was measured on histologically prepared cross sections of the ear by image analysis.

ear total lipid fraction = assay: Total lipid fraction of hamster ear; format: in vivo, Golden Syrian hamsters; conditions: 4 weeks
Procedure: as §1
Also examined was the total lipid fraction from one of the ears (extraction by organic solvent followed by weighing the remaining lipid material).

[2] = tested on: LNCaP cells, MCF-7 cells and HL-60 cells; assay: Clonogenic assay, three cell lines together; format: cell-based
Procedure: (§2) Cell lines. The breast cancer cell line (MCF-7), prostate cancer cell line (LNCaP) and myeloid leukemia cell line (HL-60) were maintained as follows: MCF-7 cells were maintained in Dulbecco's Modified Eagle Media (DMEM) with 10% fetal calf serum (FCS); LNCaP and HL-60 were cultured in RPMI1640 with 10% FCS; All three cell lines were maintained in a 37° C. incubator containing 5% CO2.
(§3) Vitamin D3 Compounds. The vitamin D3 compounds were dissolved in absolute ethanol at 10^-3 M as stock solution, which were stored at -20° C. and protected from light. For in vitro use, compounds were diluted in DMEM or RPMI medium. For in vivo use, compounds were diluted with phosphate buffered saline (PBS). […]. Washed single-cell suspensions of cells were enumerated and plated into 24-well flat-bottomed plates with a total of […] cells/well in a volume of 400 μl/well. The feeder layer was prepared with agar that had been equilibrated at 42° C. Prior to this step, compounds were pipetted into wells. After incubation, the colonies were counted. All experiments were done at least three times using triplicate plates per experimental point.
(§4) Effect of Vitamin D3 analogs on Clonogenic Assay. […]

[3] = tested on: myeloid leukemia cell line (HL-60); assay: Clonogenic assay in soft agar, HL-60; format: cell-based; conditions: Homo sapiens, HL-60 cells, read-out: ED50 (effective dose that inhibited 50% colony formation)
Procedure: as §2, §3, §4

[4] = Serum calcium levels, adult female rats, day 7 of oral dosing; format: in vivo; conditions: for Serum Calcium Mean: vehicle 9.65
Procedure: Three month old adult female rats were used. […] On day 7 of dosing, animals were bled and serum calcium levels were determined. Compound was dissolved in 200 proof ethanol to produce a concentration of 100 μg/ml. […] Dose volume was calculated using the dosing group average body weight. Serial dilutions of vehicle dissolved compound were done to appropriate dosage concentrations. Blood (1.5 ml) was collected from each animal by orbital puncture under ether anesthesia on Day 7 of dosing. Blood was collected into serum separator tubes, centrifuged at 2000 rpm for 15 minutes and then serum aliquoted for calcium determinations. Serum calcium was determined by colorimetric assay.

[5] = tested on: breast cancer cell line (MCF-7); assay: Clonogenic assay in soft agar, MCF-7; format: cell-based; conditions: Homo sapiens, MCF7, MCF-7 cells, read-out: ED50 (effective dose that inhibited 50% colony formation)
Procedure: as §2, §3, §4

[6] = tested on: prostate cancer cell line (LNCaP); assay: Clonogenic assay in soft agar, LNCaP; format: cell-based; conditions: Homo sapiens, LNCaP cells, read-out: ED50 (effective dose that inhibited 50% colony formation)
Procedure: as §2, §3, §4

[7] = testosterone + 0.1 μg compound s.c. daily, 14 days

## C=C1/C(=C\C=C2/CCC[C@]3(C)[C@@H]([C@H](C)CCCC(C)(C)O)CC[C@@H]23)C[C@@H](O)C[C@@H]1O [1,25(OH)2 D3, reference compound]
MCF-7 cells
  number of cells in the G0-G1 phase: significant increase (P≤0.05)
  proportion of cells in S phase: concomitant decrease
[1]; 0.1 μg/mouse i.p. every other day, 3 weeks
  hypercalcemia: all hypercalcemic
[1]; 0.1 μg/mouse i.p. every other day, 3 weeks, normal 8.5-10.5 mg/dl
  serum calcium level: approximately 12 mg/dl
[1]
  survival: All mice survived
Ventral prostate; non-toxic doses (1 μg)
  androgen-induced hypertrophy of the ventral prostate gland: inactive

## C=C1/C(=C/C=C2\CCC[C@]3(C)C([C@H](C)CCCC(C)(C)O)=CC[C@@H]23)C[C@@H](O)C[C@@H]1O [1,25(OH)2-16-ene-5,6-trans-D3, 1,25-Dihydroxy-16-ene-5,6-trans-cholecalciferol]
Sebaceous glands; 0.01 μg/day gavage
  sebaceous gland area, % Change from Control: -5%
Sebaceous glands; 0.1 μg/day gavage
  sebaceous gland area, % Change from Control: -23%
Sebaceous glands; 1 μg/day gavage
  sebaceous gland area, % Change from Control: -50%
Sebaceous glands; 10 μg/day gavage
  sebaceous gland area, % Change from Control: -50%
MCF-7 cells
  number of cells in the G0-G1 phase: significant increase (P≤0.05)
  proportion of cells in S phase: concomitant decrease
Ear total lipid fraction; 0.01 μg/day gavage
  total lipid fraction, % Change from Control: -26%
Ear total lipid fraction; 0.1 μg/day gavage
  total lipid fraction, % Change from Control: -25%
Ear total lipid fraction; 1 μg/day gavage
  total lipid fraction, % Change from Control: -37%
Ear total lipid fraction; 10 μg/day gavage
  total lipid fraction, % Change from Control: -56%
[2]; 10^-11 to 10^-7 M
  inhibition of clonal proliferation: effective in inhibition of clonal proliferation of the three cell lines in a dose-dependent manner
[2]; vs 1,25(OH)2 D3, about
  potency relative to 1,25(OH)2 D3 (fold more potent): 10-100 fold
[3]
  IC50: 0.03 nM
[1]; 0.1-2.0 μg/mouse i.p. every other day, 3 weeks, control mice 8-9 mg/dl
  serum calcium level: 8 to 10 mg/dL
[1]; 0.1-2.0 μg/mouse i.p., 3 weeks
  serum calcium level compared with control mice: almost the same calcium level
[1]
  survival: All mice survived
Ventral prostate; castrated, testosterone stimulated hamsters
  androgen-induced hypertrophy of the ventral prostate gland: substantially suppressed
Ventral prostate; [7]
  Ventral prostate Inhib. (percent inhibition of stimulated response): 77%
  Ventral prostate weight: 19 ± 2 mg
[4]; 0.5 μg/kg/day oral
  Serum Calcium Mean: 10.64 mg/dL
[4]; 1 μg/kg/day oral
  Serum Calcium Mean: 10.06 mg/dL
[4]; 1.5 μg/kg/day oral
  Serum Calcium Mean: 9.92 mg/dL
[4]; 2 μg/kg/day oral
  Serum Calcium Mean: 9.77 mg/dL
[4]; up to 2 μg/kg/day oral
  serum calcium levels: within the normal range
[5]
  IC50: 4.3 nM
[6]
  IC50: 1.4 nM
